Experimental data as given in ChEMBL document CHEMBL6178002, “Identification of a RANKL/TNF-α Dual-Inhibitor as a Potential Disease-Modifying Agent for the Treatment of Knee Osteoarthritis” (J Med Chem, 2025).
The source made the active and inactive calls. No cut-off for these calls is given here.

Legend:
Bone marrow macrophage [1] = assay: Inhibition of RANKL/M-CSF-induced osteoclastogenesis in bone marrow macrophage cells (unknown origin) assessed as decrease in MMP-9 level incubated for 48 hrs by Western blot analysis; assay type: functional, cell-based; details: dose <= 2.5 µM
[2] = Cmax in male Sprague-Dawley rat at 1 mg/kg, iv measured for 0.25 to 24 hrs; assay type: ADME, organism-based; details: in vivo, time 0.25-24 hrs
Rattus norvegicus [3] = species: Rattus norvegicus; assay: Anti-inflammatory activity in male Sprague-Dawley rat model of ACLT-induced osteoarthritis assessed as reduction in surface temperature in arthritic joint at 50 to 100 ug, IART treated weekly once for 8 weeks by infrared imaging analysis; assay type: functional, organism-based; details: dose 50-100 µg
Bone marrow macrophage [4] = assay: Inhibition of RANKL/M-CSF-induced osteoclastogenesis in bone marrow macrophage cells (unknown origin) assessed as decrease in TRAP level at 1 uM by Western blot analysis; assay type: functional, cell-based; details: time <= 5.0 day
Bone marrow macrophage [5] = assay: Inhibition of RANKL/M-CSF-induced osteoclastogenesis in bone marrow macrophage cells (unknown origin) assessed as decrease in cathepsin K mRNA level at 1 uM by RT-qPCR analysis; assay type: functional, cell-based; details: time <= 5.0 day
Primary chondrocyte = assay: Anti-inflammatory activity in IL-1beta-treated C57/BL6 mouse primary chondrocytes assessed as decrease in MMP-3 mRNA level at 10 uM incubated for 24 hrs by RT-qPCR analysis; assay type: functional, cell-based
RAW264.7 [6] = assay: Inhibition of NFkappaB activation in mouse RAW264.7 cells assessed as reduction in TNF-alpha-induced NF-kappaB p65 phosphorylation at 1 to 10 uM preincubated for 12 hrs followed by LPS/TNF-alpha addition measured after 2 hrs by Western blot analysis; assay type: cell-based; details: dose 1-10 µM, time 14.0 hrs
Bone marrow macrophage [7] = assay: Inhibition of RANKL/M-CSF-induced osteoclastogenesis in bone marrow macrophage cells (unknown origin) assessed as decrease in TRAP level incubated for 48 hrs by Western blot analysis; assay type: functional, cell-based; details: dose <= 2.5 µM
Bone marrow macrophage [8] = assay: Inhibition of RANKL/M-CSF-induced osteoclastogenesis in bone marrow macrophage cells (unknown origin) assessed as decrease in c-Fos mRNA level at 1 uM by RT-qPCR analysis; assay type: functional, cell-based; details: time <= 5.0 day
Tumor necrosis factor = Tumor necrosis factor (Homo sapiens, UniProt P01375); assay: Binding affinity to CM5 chip-immobilized human TNF-alpha assessed as dissociation constant by SPR analysis
Chain of Tumor necrosis factor (P01375 whole entry): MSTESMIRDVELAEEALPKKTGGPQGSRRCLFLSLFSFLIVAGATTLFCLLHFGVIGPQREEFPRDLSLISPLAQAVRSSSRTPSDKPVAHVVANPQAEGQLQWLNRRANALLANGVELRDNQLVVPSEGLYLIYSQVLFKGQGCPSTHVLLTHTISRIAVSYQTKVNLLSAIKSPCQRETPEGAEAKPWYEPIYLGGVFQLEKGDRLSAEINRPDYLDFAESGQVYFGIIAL

RAW264.7 [9] = assay: Anti-inflammatory activity in LPS-stimulated mouse RAW264.7 cells assessed as decrease in IL-18 level at 10 uM preincubated for 24 hrs followed by LPS addition measured after 2 hrs by RT-qPCR analysis; assay type: functional, cell-based; details: time 26.0 hrs
RAW264.7 [10] = assay: Anti-inflammatory activity in LPS-stimulated mouse RAW264.7 cells assessed as decrease in IL-1beta level at 10 uM preincubated for 24 hrs followed by LPS addition measured after 2 hrs by RT-qPCR analysis; assay type: functional, cell-based; details: time 26.0 hrs
Bone marrow macrophage [11] = assay: Inhibition of RANKL/M-CSF-induced osteoclastogenesis in bone marrow macrophage cells (unknown origin) assessed as decrease in cathepsin K mRNA level incubated for 48 hrs by RT-qPCR analysis; assay type: functional, cell-based; details: dose <= 5.0 µM
Bone marrow macrophage [12] = assay: Inhibition of RANKL/M-CSF-induced osteoclastogenesis in bone marrow macrophage cells (unknown origin) assessed as decrease in NFATC1 mRNA level incubated for 48 hrs by RT-qPCR analysis; assay type: functional, cell-based; details: dose <= 5.0 µM
[13] = Inhibition of RANKL/M-CSF-induced osteoclastogenesis in male C57/BL6 mouse bone marrow cells at 0.1 uM incubated for 5 to 7 days by TRAP staining based analysis relative to control; assay type: functional; details: C57/BL6, Bone marrow cell, time 5-7 day
[14] = target: T1, Tumor necrosis factor ligand superfamily member 11 (Homo sapiens, UniProt O14788); assay: Binding affinity to CM5 chip-immobilized human RANKL assessed as dissociation constant by SPR analysis
T1 sequence (O14788 whole entry): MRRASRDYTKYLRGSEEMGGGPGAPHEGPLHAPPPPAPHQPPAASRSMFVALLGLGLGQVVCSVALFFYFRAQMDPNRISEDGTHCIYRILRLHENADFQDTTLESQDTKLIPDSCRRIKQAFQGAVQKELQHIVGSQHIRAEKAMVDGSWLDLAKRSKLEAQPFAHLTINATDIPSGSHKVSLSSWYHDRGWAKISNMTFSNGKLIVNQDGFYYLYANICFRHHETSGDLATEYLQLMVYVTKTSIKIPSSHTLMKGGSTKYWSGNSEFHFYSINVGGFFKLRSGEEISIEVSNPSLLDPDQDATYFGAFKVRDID

Rattus norvegicus [15] = species: Rattus norvegicus; assay: Anti-inflammatory activity in male Sprague-Dawley rat model of ACLT-induced osteoarthritis assessed as reduction in articular cartilage erosion at 50 to 100 ug, IART treated weekly once for 8 weeks by H and E/S-O/FG staining based analysis; assay type: functional, organism-based; details: dose 50-100 µg
[16] = Half life in male Sprague-Dawley rat at 1 mg/kg, iv measured for 0.25 to 24 hrs; assay type: ADME, organism-based; details: in vivo, time 0.25-24 hrs
[17] = Volume of distribution at steady state in male Sprague-Dawley rat at 1 mg/kg, iv measured for 0.25 to 24 hrs; assay type: ADME, organism-based; details: in vivo, time 0.25-24 hrs, read-out: Vdss

With `Cc1cccc(C)c1NC(=O)[C@@H]1Cc2c([nH]c3ccccc23)C2(CN(c3ccccc3)C2)N1` the inhibition (Bone marrow macrophage [1]) was “Dose-dependent-effect”, the Cmax [2] was 338 ng/mL and the Activity (Rattus norvegicus [3]) was “Active”. For the same compound, the inhibition (Bone marrow macrophage [4]) was “Time-dependent-effect”, the inhibition (Bone marrow macrophage [5]) was “Time-dependent-effect” and the Activity (Primary chondrocyte) was “Active”. The inhibition (RAW264.7 [6]) was “Active”, the inhibition (Bone marrow macrophage [7]) was “Dose-dependent-effect” and the inhibition (Bone marrow macrophage [8]) was “Time-dependent-effect”. The Kd (Tumor necrosis factor) was 18.6 µM, the Activity (RAW264.7 [9]) was “Active” and the Activity (RAW264.7 [10]) was “Active”. The inhibition (Bone marrow macrophage [11]) was “Dose-dependent-effect”, the inhibition (Bone marrow macrophage [12]) was “Dose-dependent-effect” and the inhibition at 0.1 µM [13] was 59.7%. For the same compound, the Kd [14] was 3.98 µM, the Activity (Rattus norvegicus [15]) was “Active” and the half-life [16] was 1.27 h. It also gave a Vd [17] of 4.91 L/kg.
